Measurements taken from patent publication US8809532B2, “Aza-ring fused indole and indoline derivatives” (AbbVie Inc., priority 2009, dated 2014).

What was measured:
[1] = test system: SK-N-SH human neuroblastoma cells; experiment: Serum Deprivation/JC-1 Mitochondrial Membrane Potential (MMP) Assay; assay type: cell-based; conditions: for Emax: 18 h, percent maximal JC-1 ratio normalized to the peak value for 10 μM dimebolin, read-out: JC-1 max %; for EC50: JC-1 ratio after ~18 hours serum deprivation, single curve fit to mean data of n=2-3
Protocol: SK—N—SH human neuroblastoma cells obtained from American Type Culture Collection (Rockville, Md.) were maintained in the log phase of growth in Minimal Essential Media (MEM), 10% heat inactivated fetal calf serum and 100 units/mL antibiotic-antimycotic (AA). Cells were cultured and maintained in a humidified incubator at 37° C. under 5% CO2 and 95% air. Cells were trypsinized (0.25%) and subcultured every 3 days and used from 15-18 passages. All cell culture supplies were obtained from Invitrogen (Carlsbad, Calif.).
SK—N—SH cells were plated 2-3 days in advance at a concentration of 50,000 cells/well onto collagen coated black-walled 96 well plates (Becton-Dickinson, Bedford, Mass.) in a total volume of 200 μL. On day of experimental treatment, the media containing serum was aspirated from each well and rinsed once with MEM/1% AA without serum. The cells then were incubated overnight in 100 μL of MEM/1% AA (no serum) with and without dimebolin or novel chemical entities overnight for ˜18 hours. The following day, JC-1 dye (5,5′,6,6′-tetrachloro-1,1′,3,3′-tetraethylbenzimidazolcarbocyanide) was diluted 1:10 into MEM media according to the JC-1 Mitochondrial Membrane Potential Assay Kit: (Cayman Chemical Company, Ann Arbor, Mich.) and then 10 μL of the JC-1 dye solution was added to each well. The plates were centrifuged for 5 minutes at 400×g at room temperature followed by 40 minute incubation at 37° C. The plates were washed twice with 200 μL of provided Assay Buffer followed an addition of 100 μL of Assay Buffer to each well. The plates were read with an excitation and emission of 560 nm and 595 nM for red fluorescence and with an excitation and emission of […] and 535 nM for green fluorescence to determine the final JC-1 value taking the red to green fluorescence ratio. This assay is based on change in mitochondrial membrane potential (MMP) using this lipophilic cationic dye, JC-1, by monitoring the changes in the ratio of red to green fluorescence as the MMP depolarizes. This change in MMP reflects the health of the cell with healthy, viable cells have a high JC-1 ratio and high MMP whereas apoptotic, unhealthy cells have a low JC-1 ratio or low MMP.
For the ability of compounds to reverse the stress due to serum deprivation and increase the JC-1 ratio, the percent maximal intensity in JC-1 ratio was normalized to that induced by the peak value for 10 μM dimebolin and plotted against the compound concentration to calculate EC50 values and to control for plate-to-plate variability. Concentration-response data were analyzed using GraphPad Prism (San Diego, Calif.); the EC50 values were derived from a single curve fit to the mean data of n=2-3, in duplicates.
All compounds were dissolved in dimethyl sulfoxide at 10 mM stock solutions and tested at a concentration that the dimethyl sulfoxide levels never exceeded 1%.

[2] = test system: primary postnatal (P0) cortical cells; experiment: Neurite Outgrowth Assay (Aβ1-42 neuroprotection, high content microscopy); assay type: cell-based, rat; conditions: n = 3; for % Attenuation Effect of 5 μM Aβ 1-42: 5 μM Aβ1-42; for Emax: Rattus norvegicus, maximum response relative to 300 nM dimebolin, at the noted concentration, read-out: Maximum Effect (of % 300 nM Dimebolin) at Concentration; for Concentration (nM) at which the Maximum Effect was seen: test compound concentration of the maximum response
Protocol: In addition to PC12 cells, other cellular model systems may also be used. Rat cortical cells can be cultured and prepared for high content microscopy analysis as previously described (Hu, M.; Schurdak, M. E.; et al. High content screen microscopy analysis of Aβ1-42-induced neurite outgrowth reduction in rat primary cortical neurons: Neuroprotective effects of α7 neuronal nicotinic acetylcholine receptor ligands. Brain Res. 2007, 1151, 227-235.). Briefly, cortical cell cultures are plated at density of 5×10^5 cells/mL onto poly-D-lysine coated 96-well plates and maintained in a cell incubator at 37° C. with 5% CO2. Experiments are performed using 6-7 day-old cortical cell cultures by treating with test compounds. In some experiments, the effect of test compounds on reversing Aβ toxicity can also be measured (Hu, M.; Schurdak, M. E.; et al. High content screen microscopy analysis of Aβ1-42-induced neurite outgrowth reduction in rat primary cortical neurons: Neuroprotective effects of α7 neuronal nicotinic acetylcholine receptor ligands. Brain Res. 2007, 1151, 227-235.). For assessment of neuroprotective effects, cells are first pretreated with test compounds for about 5 hours. Medium is then replaced with the medium containing freshly prepared about 5 μM Aβ1-42 peptide in the absence or presence of the test compounds for 3 days. The untreated group contains the same percentage of vehicle (DMSO) as in the treatment groups. Cells are fixed with approximately 4% paraformaldehyde containing 0.5% Hoechst 33342 for about 15 minutes, followed by three washes using PBS (pH 7.4) and blocked with 10% donkey serum in PBS for 1 hour at room temperature. The cells are then incubated overnight at about 4° C. with mouse anti-tubulin monoclonal antibody (1:100) for staining neurons and rabbit anti-GFAP (1:1000) for staining glia. In the next day, cells are incubated with FITC-labeled anti-mouse and TRITC-labeled anti-rabbit antibodies (1:1000) for about 1 hour at room temperature. After fixing and staining the cells, nuclei (360/400 nm excitation and 465/300 nm emission filters), neuron (475/350 nm excitation and 535/400 nm emission filters) and glial cell (535 nm excitation and 610 nm emission filters) images are collected using the ImageExpress Micro automatic fluorescent microscopy system (Molecular Devices, Sunnyvale, Calif.) employing a Nikon 10x Plan Fluor objective and Cool Snap HQ CCD camera. The Neurite Outgrowth module in the MetaMorph Imaging software can be used to automatically count total cell number, number of neuron cells, and the extent of neurite outgrowth.
The neurite outgrowth observed for untreated cells is set to 100% response. Treatment of cells with compounds prior to and concomitantly with Aβ1-42 gave a neuroprotective effect with neurite outgrowth maintained or enhanced relative to untreated cells.

[3] = test system: patients with mild-to-moderate Alzheimer's disease; conditions: cited from earlier work
[4] = test system: primary rat cortical neurons; conditions: comparable to that evoked by BDNF; cited from earlier work

SMILES | EC50 [1] [µM] | Emax [1] [%] | further results
Cc1ccc(CCc2cccc3c4c([nH]c23)CCNC4)cn1 [Example 7, 6-[2-(6-methylpyridin-3-yl)ethyl]-2,3,4,5-tetrahydro-1H-pyrido[4,3-b]indole] | 4.72 | 88 | 
Cc1ccc(C#Cc2cccc3c4c([nH]c23)CCN(C)C4)cn1 [Example 2, 2-methyl-6-[(6-methylpyridin-3-yl)ethynyl]-2,3,4,5-tetrahydro-1H-pyrido[4,3-b]indole] | 10.8 | 176 | % Attenuation Effect of 5 μM Aβ 1-42 [2]: 57 (n = 3) %; Emax [2]: 129%; Concentration (nM) at which the Maximum Effect was seen [2]: 300 nM
CN1CCc2[nH]c3c(C#Cc4cccnc4)cccc3c2C1 [Example 4, 2-methyl-6-(pyridin-3-ylethynyl)-2,3,4,5-tetrahydro-1H-pyrido[4,3-b]indole] | 8.93 | 199 | 
Cc1ccc2c(c1)c1c(n2CCc2ccc(C)nc2)CCN(C)C1 [dimebolin, 2,3,4,5-tetrahydro-2,8-dimethyl-5-[2-(6-methyl-3-pyridinyl)ethyl]-1H-pyrido[4,3-b]indole] |  |  | clinical course of disease, ADAS-Cog over baseline ([3]; 20 mg three times a day (60 mg/day)): significant improvement; most frequent adverse event ([3]; reported clinical studies): dry mouth; neurite outgrowth [4]: increase neurite outgrowth
CN1CCc2[nH]c3c(C#Cc4ccncc4)cccc3c2C1 [Example 5, 2-methyl-6-(pyridin-4-ylethynyl)-2,3,4,5-tetrahydro-1H-pyrido[4,3-b]indole] | 4.32 | 103 | 
Cc1ccc(/C=C/c2cccc3c2N[C@@H]2CCN(C)C[C@H]32)cn1 (relative stereo) [Example 9, (cis)-2-methyl-6-[(E)-2-(6-methylpyridin-3-yl)vinyl]-2,3,4,4a,5,9b-hexahydro-1H-pyrido[4,3-b]indole] | 7.53 | 161 | 
Cc1ccc(CCc2cccc3c4c([nH]c23)CCN(C)C4)cn1 [Example 3, 2-methyl-6-[2-(6-methylpyridin-3-yl)ethyl]-2,3,4,5-tetrahydro-1H-pyrido[4,3-b]indole] | 7.64 | 115 | 

Further lines, with some results ahead:

EC50 [1] [µM] | SMILES | Emax [1] [%] | further results
3.24 | CCOC(=O)N1CCc2[nH]c3c(/C=C/c4ccc(C)nc4)cccc3c2C1 [Example 10, ethyl 6-[(E)-2-(6-methylpyridin-3-yl)vinyl]-1,3,4,5-tetrahydro-2H-pyrido[4,3-b]indole-2-carboxylate] | 146 | 
4.13 | Cc1ccc(/C=C/c2cccc3c4c([nH]c23)CCNC4)cn1 [Example 6, 6-[(E)-2-(6-methylpyridin-3-yl)vinyl]-2,3,4,5-tetrahydro-1H-pyrido[4,3-b]indole] | 132 | 
4.37 | Cc1ccc(/C=C/c2cccc3c4c([nH]c23)CCN(C)C4)cn1 [Example 1, 2-methyl-6-[(E)-2-(6-methylpyridin-3-yl)vinyl]-2,3,4,5-tetrahydro-1H-pyrido[4,3-b]indole] | 126 | % Attenuation Effect of 5 μM Aβ 1-42 [2]: 39 (n = 3) %; Emax [2]: 111%; Concentration (nM) at which the Maximum Effect was seen [2]: 30 nM
2.98 | CC(=O)N1CCc2[nH]c3c(/C=C/c4ccc(C)nc4)cccc3c2C1 [Example 8, 2-acetyl-6-[(E)-2-(6-methylpyridin-3-yl)vinyl]-2,3,4,5-tetrahydro-1H-pyrido[4,3-b]indole] | 155 | 
5.1 | CCNC(=O)N1CCc2[nH]c3c(/C=C/c4ccc(C)nc4)cccc3c2C1 [Example 11, N-ethyl-6-[(E)-2-(6-methylpyridin-3-yl)vinyl]-1,3,4,5-tetrahydro-2H-pyrido[4,3-b]indole-2-carboxamide] | 186 | 
